The source of these data is patent US20100268321A1, “DRUG-RELEASING GRAFT” (C R BARD, INC., priority 2005, published 2010).

The data set is described as follows: Controlled release study: release of chlorhexidine acetate (ChAc) from drug-loaded ePTFE vascular cuff graft sections into PBS, UV absorbance. The settings on record: from ePTFE cuff section in PBS. The class given is physicochemical. As to the method: With respect to a vascular cuff graft, examples of which are shown in FIGS. 2 and 3, experimentation was conducted to study the release of a drug without a polymeric carrier from the cuff surface. The drug chosen for the experiment was chlorhexidine acetate (ChAc) and the release time was scheduled for nine weeks. The materials and methods of the experiment included creating a calibration curve, preparing the vascular cuff grafts, and measuring absorbance, each of which is described in detail below.
Initially, a calibration curve was created to determine the concentration of ChAc in phosphate buffered saline (PBS). […] The absorbance of each of these solutions was determined using the Shimadzu UV-1601 spectrophotometer. A curve of absorbance versus concentration was expected to be linear. […]
To prepare the vascular cuff grafts, the drug was embedded therein using the following procedure. […] The cuff section weights with the loaded drug were then determined and recorded. The cuff section weights without the loaded drug were determined after the study by washing the cuffs with ethanol and drying. […]
Absorbance was measured to determine the amount of drug released from the cuff sections. […] The PBS solutions were then analyzed using the Shimadzu UV 1600 spectrophotometer. […] The absorbance at ˜286 nm was recorded by automatic peak detection by the spectrophotometer. […]

`CC(=O)O.CC(=O)O.NC(=N\CCCCCC/N=C(N)/N=C(\N)Nc1ccc(Cl)cc1)/N=C(\N)Nc1ccc(Cl)cc1` [ChAc, chlorhexidine acetate]: for the setting “after nine weeks”, the “levels of the drug in release medium” value is on record as “still detectable”. In addition, the drug released entry (after one day) is given as “approximately 50%”.
